Experiments:
[1] = system: alfa-1; assay: Potency as replacement of nor-adrenaline (alfa-1-agonist)
Description: In some embodiments, the adrenaline and/or nor-adrenaline may be partly or entirely replaced by an equivalent substance. For example, phenylephrine is an alfa-1-agonist and may replace nor-adrenaline.

[2] = in vivo; cited from earlier work
[3] = target: NET (nor-epinephrine transporter) (Homo sapiens, UniProt P23975); conditions: cited from earlier work
[4] = cited from earlier work
[5] = system: brain-dead, heart-beating cadaver of a pig; assay: Blood pressure and organ maintenance in brain-dead, heart-beating pig under intravenous infusion; format: in vivo
Procedure: The following ingredients: 1 mg (1 ml) adrenaline, 1 mg (1 ml) nor-adrenaline, 0.3 mg (3 ml) T3, 300 mg (3 ml) cortisone, […] (9 ml) Minirin and 1 mg (3 ml) cocaine were dissolved in 50 ml physiological sodium chloride solution.
For reducing the risk of diabetes insipidus, a bolus of […] Minirin was given at the start of the treatment.
The inventor has performed more than 20 experiments with pigs and using cocaine in combination with adrenaline and nor-adrenaline.
FIG. 4 is a diagram over blood pressure during an experiment similar to Experiment 1.

Sequence of NET (nor-epinephrine transporter) (P23975 whole entry, species assumed): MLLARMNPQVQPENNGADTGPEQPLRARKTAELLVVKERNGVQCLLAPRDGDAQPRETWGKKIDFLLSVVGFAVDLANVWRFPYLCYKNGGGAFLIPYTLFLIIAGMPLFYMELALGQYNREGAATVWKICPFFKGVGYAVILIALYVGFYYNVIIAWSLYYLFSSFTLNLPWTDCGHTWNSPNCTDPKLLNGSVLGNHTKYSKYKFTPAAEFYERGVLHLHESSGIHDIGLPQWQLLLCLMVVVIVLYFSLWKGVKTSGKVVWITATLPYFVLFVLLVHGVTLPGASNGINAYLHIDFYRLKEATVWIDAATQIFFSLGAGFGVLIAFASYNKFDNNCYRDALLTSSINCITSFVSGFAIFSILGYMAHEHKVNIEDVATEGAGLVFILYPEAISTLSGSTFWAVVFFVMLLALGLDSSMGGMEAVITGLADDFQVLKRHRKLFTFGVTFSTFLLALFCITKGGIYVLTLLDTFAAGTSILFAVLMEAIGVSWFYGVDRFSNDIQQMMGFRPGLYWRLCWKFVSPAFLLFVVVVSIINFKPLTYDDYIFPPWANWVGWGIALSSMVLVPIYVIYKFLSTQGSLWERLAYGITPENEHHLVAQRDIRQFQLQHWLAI

Question: For `CNC[C@H](O)c1cccc(O)c1` [phenylephrine], which “potency relative to nor-adrenaline (times less potent)” value [1] is on record?
Answer: Its value is “about 5 times”.

Question: With `CCN(CC)CC(=O)Nc1c(C)cccc1C` [Lidocaine] as the compound, how does the “effect of infusion on blood pressure” value [2] read?
Answer: Its value is “vasodilatation and a lowering of the blood pressure”.

Question: For `CNCCCC1c2ccccc2C=Cc2ccccc21` [Protriptylin], which “potency among NET inhibitors” value [3] is on record?
Answer: The value was “highest”.

Question: Which “potency among NET inhibitors” value [3] does the source give for `CNCCCN1c2ccccc2CCc2ccc(Cl)cc21` [Norclomipramine] here?
Answer: Its value is “highest”.

Question: Which half-life-time [4] does the source give for `NC(=O)CC[C@@H]1NC(=O)[C@H](Cc2ccccc2)NC(=O)[C@H](Cc2ccc(O)cc2)NC(=O)[C@@H](N)CSSC[C@@H](C(=O)N2CCC[C@H]2C(=O)N[C@@H](CCCN=C(N)N)C(=O)NCC(N)=O)NC(=O)[C@H](CC(N)=O)NC1=O` [ADH] here?
Answer: Its half-life-time is “about 15 minutes”.

Question: With `CC(N)Cc1ccccc1` (stereo not drawn) [amphetamine, alpha-methylphenethylamine] as the compound, how does the “increase of mean arterial pressure” value ([5]; added at 29.5 hours to infusion solution of Experiment 1 without cocaine, constant until 36 hours) read?
Answer: Its value is “about 15 mmHg”.

Question: Which “potentiation of the effect of blood circulating nor-adrenaline (vasoconstriction)” value ([5]; added together with nor-adrenaline, compared with cocaine) does the source give for `COC(=O)[C@H]1[C@@H](OC(=O)c2ccccc2)C[C@@H]2CC[C@H]1N2C` [cocaine, benzoylmethyl ecgonine] here?
Answer: The value was “much lower levels of nor-adrenaline”.

Question: What about the “blood pressure maintained at a constant level” value ([5]; more than 20 experiments with pigs, in combination with adrenaline and nor-adrenaline, over 24 hours) of the same compound?
Answer: Its value is 70 mmHg.

Question: Which results are given for `CNCCCN1c2ccccc2CCc2ccccc21` [desipramine]?
Answer: mean pressure reached on infusion ([5]; Experiment 2, infusion 1.7 to 3.2 ml/hour with adrenaline and nor-adrenaline, from a mean pressure of about 40 mmHg): 80 mmHg; blood pressure after infusion rate was decreased ([5]; Experiment 2, infusion rate decreased to 2.5 and 1.7 ml/hour, never decreased further): about 60 mmHg; half-life time [4]: 30 h

Source: patent US20110281794A1, “C[…]-[…] A[…] ADM[…] A BRAIN-DEAD, HEART-BEATING POTENTIAL ORGAN DONOR” (VIVOLINE MEDICAL AB, priority 2008, published 2011)
